System: single-round infectious HIV-1 reporter virus
Assay: microbe, parasite or virus in culture
Assay type: cell-based
Conditions: for EC50: Human immunodeficiency virus 1, HeLa-CD4/CCR5; for inhibition at 10 µM: Human immunodeficiency virus 1, HeLa-CD4/CCR5, 72 h, read-out: Average % inhibition at or <10 μM; for Average % inhibition at or <10 μM: HeLa CD4 CCR5 cells, luciferase expression 3 days (72 hours) after infection, compounds tested below 10 μM: % inhibition at 10 μM extrapolated with XLfit, mean of at least two experiments

Row | Compound | EC50 | inhibition at 10 µM | Average % inhibition at or <10 μM
1 | C[C@@H]1CN(C(=O)c2ccccc2)CCN1C(=O)C(=O)c1c[nH]c2nc(C#N)ccc12 [Compound 12a, (R)-N-(benzoyl)-3-methyl-N′-[(6-cyano-7-azaindol-3-yl)-oxoacetyl]-piperazine] | < 1000 nM | > 99% | 
2 | CC(=O)Oc1ccc2c(C(=O)C(=O)N3CCN(C(=O)c4ccccc4)C[C@H]3C)cn(C(C)=O)c2n1 [Compound 13a, (R)-N-(benzoyl)-3-methyl-N′-[(1-acetyl-6-acetoxy-7-azaindol-3-yl)-oxoacetyl]-piperazine] | < 1000 nM | > 99% | 
3 | C[C@@H]1CN(C(=O)c2ccccc2)CCN1C(=O)C(=O)c1c[nH]c2nc(O)ccc12 [Compound 14a, (R)-N-(benzoyl)-3-methyl-N′-[(6-hydroxyl-7-azaindol-3-yl)-oxoacetyl]-piperazine] |  | > 99% | 
4 | C[C@@H]1CN(C(=O)c2ccccc2)CCN1C(=O)C(=O)c1c[nH]c2c1c([N+](=O)[O-])cc[n+]2[O-] [Compound 15a, (R)-N-(benzoyl)-3-methyl-N′-[(4-nitro-7-oxide-7-azaindol-3-yl)-oxoacetyl]-piperazine] |  |  | 70%
5 | COc1cc[n+]([O-])c2[nH]cc(C(=O)C(=O)N3CCN(C(=O)c4ccccc4)C[C@H]3C)c12 [Compound 16a, (R)-N-(benzoyl)-3-methyl-N′-[(4-methoxy-7-oxide-7-azaindol-3-yl)-oxoacetyl]-piperazine] |  |  | >99%
6 | CCOc1cc[n+]([O-])c2[nH]cc(C(=O)C(=O)N3CCN(C(=O)c4ccccc4)C[C@H]3C)c12 [Compound 16d, (R)-N-(benzoyl)-3-methyl-N′-[(4-ethoxy-7-oxide-7-azaindol-3-yl)-oxoacetyl]-piperazine] |  |  | 88%
7 | CCCSc1cc[n+]([O-])c2[nH]cc(C(=O)C(=O)N3CCN(C(=O)c4ccccc4)C[C@H]3C)c12 [Compound 16e, (R)-N-(benzoyl)-3-methyl-N′-[(4-propylthio-7-oxide-7-azaindol-3-yl)-oxoacetyl]-piperazine] |  |  | 50%
8 | COc1ccnc2[nH]cc(C(=O)C(=O)N3CCN(C(=O)c4ccccc4)C[C@H]3C)c12 [Compound 17a, (R)-N-(benzoyl)-3-methyl-N′-[(4-methoxy-7-azaindol-3-yl)-oxoacetyl]-piperazine] | < 1000 nM | > 99% | 
9 | C[C@@H]1CN(C(=O)c2ccccc2)CCN1C(=O)C(=O)c1c[nH]c2nccc(OCC(F)(F)F)c12 [Compound 17b, (R)-N-(benzoyl)-3-methyl-N′-[(4-(2,2,2-trifluoroethoxy)-7-azaindol-3-yl)-oxoacetyl]-piperazine] | < 1000 nM | 99% | 
10 | CC(C)Oc1ccnc2[nH]cc(C(=O)C(=O)N3CCN(C(=O)c4ccccc4)C[C@H]3C)c12 [Compound 17c, (R)-N-(benzoyl)-3-methyl-N′-[(4-(1-methylethoxy)-7-azaindol-3-yl)-oxoacetyl]-piperazine] | < 1000 nM | > 99% | 
11 | COc1ccnc2[nH]cc(C(=O)C(=O)N3CCN(C(=O)c4ccccc4)C[C@@H]3C)c12 [Compound 17d, (S)-N-(benzoyl)-3-methyl-N′-[(4-methoxy-7-azaindol-3-yl)-oxoacetyl]-piperazine] | < 1000 nM | 98% | 
12 | COc1ccnc2[nH]cc(C(=O)C(=O)N3CCN(C(=O)c4ccccc4)CC3C)c12 (centres unmarked) [Compound 17e, N-(benzoyl)-3-methyl-N′-[(4-methoxy-7-azaindol-3-yl)-oxoacetyl]-piperazine] | < 1000 nM | 94% | 
13 | CCCSc1ccc2c(C(=O)C(=O)N3CCN(C(=O)c4ccccc4)C[C@H]3C)c[nH]c2n1 [Compound 17f, (R)-N-(benzoyl)-3-methyl-N′-[(6-propylthiol-7-azaindol-3-yl)-oxoacetyl]-piperazine] |  |  | >99%
14 | CNc1ccnc2[nH]cc(C(=O)C(=O)N3CCN(C(=O)c4ccccc4)C[C@H]3C)c12 [Compound 17h, (R)-N-(benzoyl)-3-methyl-N′-[(4-methylamino-7-azaindol-3-yl)-oxoacetyl]-piperazine] | > 500 nM |  | 
15 | C[C@@H]1CN(C(=O)c2ccccc2)CCN1C(=O)C(=O)c1c[nH]c2nccc([N+](=O)[O-])c12 [Compound 18a, (R)-N-(benzoyl)-3-methyl-N′-[(4-nitro-7-azaindol-3-yl)-oxoacetyl]-piperazine] | 1000 to 5000 nM | 80% | 
16 | C[C@@H]1CN(C(=O)c2ccccc2)CCN1C(=O)C(=O)c1c[nH]c2nccc(NO)c12 [Compound 19a, (R)-N-(benzoyl)-3-methyl-N′-[(4-hydroxylamino-7-azaindol-3-yl)-oxoacetyl]-piperazine] | < 1000 nM | 98% | 
17 | C[C@@H]1CN(C(=O)c2ccccc2)CCN1C(=O)C(=O)c1c[nH]c2nccc(N)c12 [Compound 20a, (R)-N-(benzoyl)-3-methyl-N′-[(4-amino-7-azaindol-3-yl)-oxoacetyl]-piperazine] | < 1000 nM | 95% | 
18 | C[C@@H]1CN(C(=O)c2ccccc2)CCN1C(=O)C(=O)c1cn(C)c2ncccc12 [Compound 21a, (R)-N-(benzoyl)-3-methyl-N′-[(1-methyl-7-azaindol-3-yl)-oxoacetyl]-piperazine] | < 1000 nM | 70% | 
19 | C=CCn1cc(C(=O)C(=O)N2CCN(C(=O)c3ccccc3)C[C@H]2C)c2cccnc21 [Compound 21b, (R)-N-(benzoyl)-3-methyl-N′-[(1-allyl-7-azaindol-3-yl)-oxoacetyl]-piperazine] | < 1000 nM | 95% | 
20 | C[C@@H]1CN(C(=O)c2ccccc2)CCN1C(=O)C(=O)c1c[nH]c2c(N(C)C)nccc12 [Compound 27c, (R)-N-(benzoyl)-3-methyl-N′-[(7-dimethylamino-6-azaindol-3-yl)-oxoacetyl]-piperazine] | < 1000 nM | 63% | 
21 | COc1cncc2[nH]cc(C(=O)C(=O)N3CCN(C(=O)c4ccccc4)CC3)c12 [Compound 39, N-(benzoyl)-N′-[(4-methoxy-6-azaindol-3-yl)-oxoacetyl]-piperazine] | < 1000 nM |  | 
22 | (R)-N-(benzoyl)-3-methyl-N′-[(4 or 6)-5phenyl-7-azaindol-3-yl)-oxoacetyl]-piperazine [Compound 11b] |  |  | 85%
23 | (R)-N-(benzoyl)-3-methyl-N′-[(4 or 6)-methyl-7-azaindol-3-yl)-oxoacetyl]-piperazine [Compound 11a] |  |  | 99%
24 | (R)-N-(benzoyl)-3-methyl-N′-[(4 or 6)-vinyl-7-azaindol-3-yl)-oxoacetyl]-piperazine [Compound 11c] |  |  | 48%
25 | N-(pyridin-2-yl)-N′-[(7-azaindol-3-yl)-oxoacetyl]-piperazine [Compound 5j] |  |  | 90%

— patent US6476034B2, “Antiviral azaindole derivatives” (priority 2000, dated 2002)
